According to patent US12522594B2, “2-heteroaryl-3-oxo-2,3-dihydropyridazine-4-carboxamides for the treatment of cancer” (Deutsches Krebsforschungszentrum, priority 2017, dated 2026):

Tests used:
AHR [1] = molecular target: T1, AHR (Homo sapiens, UniProt P35869); test: In vitro assay 2: agonism in human cell line (transactivation assay, U87 cells, DRE firefly luciferase reporter); format: cell-based; parameters: host or cells: U87 glioblastoma cells, stably transfected with DRE firefly luciferase and renilla reporter constructs; settings: no kynurenic acid, 20 hours, read-out: Assay 2: AHR-luc Hum Agonism IC50
T1 sequence (P35869 11-848): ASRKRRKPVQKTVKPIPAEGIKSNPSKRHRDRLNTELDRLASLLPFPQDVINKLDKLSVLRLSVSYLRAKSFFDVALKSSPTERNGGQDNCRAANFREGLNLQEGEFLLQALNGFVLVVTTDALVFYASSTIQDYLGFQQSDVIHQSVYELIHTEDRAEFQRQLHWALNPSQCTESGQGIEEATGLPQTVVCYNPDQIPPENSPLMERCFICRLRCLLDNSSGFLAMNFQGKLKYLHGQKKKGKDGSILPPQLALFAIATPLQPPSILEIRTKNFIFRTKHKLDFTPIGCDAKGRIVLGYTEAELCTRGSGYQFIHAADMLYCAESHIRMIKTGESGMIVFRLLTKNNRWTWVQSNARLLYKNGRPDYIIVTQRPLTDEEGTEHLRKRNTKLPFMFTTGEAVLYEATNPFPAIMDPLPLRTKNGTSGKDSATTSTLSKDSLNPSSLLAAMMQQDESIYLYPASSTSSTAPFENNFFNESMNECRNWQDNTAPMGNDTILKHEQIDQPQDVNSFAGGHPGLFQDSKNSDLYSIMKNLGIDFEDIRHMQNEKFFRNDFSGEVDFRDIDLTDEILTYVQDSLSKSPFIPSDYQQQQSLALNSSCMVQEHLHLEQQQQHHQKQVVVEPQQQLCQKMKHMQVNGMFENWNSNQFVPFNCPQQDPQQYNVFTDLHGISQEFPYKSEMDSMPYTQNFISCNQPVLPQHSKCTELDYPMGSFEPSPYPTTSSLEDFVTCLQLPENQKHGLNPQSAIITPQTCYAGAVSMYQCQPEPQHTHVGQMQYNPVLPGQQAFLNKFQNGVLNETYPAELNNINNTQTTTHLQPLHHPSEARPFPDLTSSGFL
Summary of the method: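 Agonist readout: DRE firefly luciferase, with constitutive renilla reporter, in stably transfected U87 cells expressing AHR endogenously. Normalization used positive control (300 uM kynurenic acid) and negative control.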

AHR [2] = molecular target: T1, AHR; test: In vitro assay 1: antagonism in human cell line (transactivation assay, U87 cells prestimulated with kynurenic acid, DRE firefly luciferase reporter); format: cell-based; parameters: host or cells: U87 glioblastoma cells, stably transfected with DRE firefly luciferase and renilla reporter constructs; settings: 150 uM kynurenic acid, 20 hours, read-out: Assay 1: AHR-luc Hum Antagonism IC50
Summary of the method: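 Antagonism measured after kynurenic acid prestimulation in U87 cells that express AHR endogenously and stably harbor a firefly luciferase gene under DRE control plus a constitutive renilla construct. Positive and negative controls served for normalization.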

IC50 (AHR [1]) [µM] | IC50 (AHR [2]) [µM] | Compound
> 20 | 0.102 | N#C[C@@H](CO)NC(=O)c1cc(-c2ccc(C(F)(F)F)nc2)nn(-c2cncc(F)c2)c1=O [Example 341, N-[(1S)-1-Cyano-2-hydroxyethyl]-2-(5-fluoropyridin-3-yl)-3-oxo-6-[6-(trifluoromethyl)pyridin-3-yl]-2,3-dihydropyridazine-4-carboxamide]
> 20 | 0.159 | O=C(NC(CO)CO)c1cc(-c2ccc(Cl)cc2)nn(-c2cccnc2)c1=O [Example 70, 6-(4-Chlorophenyl)-N-(1,3-dihydroxypropan-2-yl)-3-oxo-2-(pyridin-3-yl)-2,3-dihydropyridazine-4-carboxamide]
> 20 | 0.0927 | C[C@]1(O)CCC[C@H]1NC(=O)c1cc(-c2ccc(OC(F)(F)F)cc2)nn(-c2cccnc2)c1=O (single isomer, unassigned) [Example 330, N-[(cis)-2-hydroxy-2-methylcyclopentyl]-3-oxo-2-(pyridin-3-yl)-6-[4-(trifluoromethoxy)phenyl]-2,3-dihydropyridazine-4-carboxamide]
> 20 | 0.105 | Cc1ccc(-c2cc(C(=O)NC(CO)C(C)C)c(=O)n(-c3cnn(C)c3)n2)cc1 (single isomer, unassigned) [Example 3, N-(1-Hydroxy-3-methylbutan-2-yl)-6-(4-methylphenyl)-2-(1-methyl-1H-pyrazol-4-yl)-3-oxo-2,3-dihydropyridazine-4-carboxamide]
> 20 | 0.0132 | Cc1cc(-n2nc(-c3ccc(Cl)cc3)cc(C(=O)NCC(C)(C)O)c2=O)cs1 [Example 246, 6-(4-Chlorophenyl)-N-(2-hydroxy-2-methylpropyl)-2-(5-methyl-3-thienyl)-3-oxo-2,3-dihydropyridazine-4-carboxamide]
> 20 | 0.0043 | Cn1cc(-n2nc(-c3ccc(C(F)(F)F)cc3)cc(C(=O)NCC(C)(C)O)c2=O)cn1 [Example 67, N-(2-Hydroxy-2-methylpropyl)-2-(1-methyl-1H-pyrazol-4-yl)-3-oxo-6-[4-(trifluoromethyl)phenyl]-2,3-dihydropyridazine-4-carboxamide]
> 20 | 0.0604 | CC(C)(O)C(NC(=O)c1cc(-c2ccc(OC(F)(F)F)cc2)nn(-c2cccnc2)c1=O)C(F)(F)F (single isomer, unassigned; enantiomer 1) [Example 136, 3-Oxo-2-(pyridin-3-yl)-N-[1,1,1-trifluoro-3-hydroxy-3-methylbutan-2-yl]-6-[4-(trifluoromethoxy)phenyl]-2,3-dihydropyridazine-4-carboxamide, Enantiomer 1]
> 20 | 0.0412 | CC(C)(O)CNC(=O)c1cc(-c2ccc(C(F)(F)F)cc2)nn(-c2cnn(C(F)F)c2)c1=O [Example 262, 2-[1-(Difluoromethyl)-1H-pyrazol-4-yl]-N-(2-hydroxy-2-methylpropyl)-3-oxo-6-[4-(trifluoromethyl)phenyl]-2,3-dihydropyridazine-4-carboxamide]
> 20 | 0.0371 | CC(C)(O)C(NC(=O)c1cc(-c2ccc(Cl)cc2)nn(-c2cncnc2)c1=O)C(F)(F)F (stereo not shown) [Example 185, 6-(4-Chlorophenyl)-3-oxo-2-(pyrimidin-5-yl)-N-(1,1,1-trifluoro-3-hydroxy-3-methylbutan-2-yl)-2,3-dihydropyridazine-4-carboxamide]
> 20 | 0.00254 | CC(C)(O)C(NC(=O)c1cc(-c2ccc(Cl)cc2)nn(-c2cccnc2)c1=O)C(F)(F)F (stereo not shown) [Example 121, 6-(4-Chlorophenyl)-3-oxo-2-(pyridin-3-yl)-N-(1,1,1-trifluoro-3-hydroxy-3-methylbutan-2-yl)-2,3-dihydropyridazine-4-carboxamide]
> 20 | 0.0306 | C[C@]1(O)CCC[C@H]1NC(=O)c1cc(-c2ccc(OC(F)(F)F)cc2)nn(-c2cccnc2)c1=O (relative stereo) [Example 328, N-[(cis)-2-Hydroxy-2-methylcyclopentyl]-3-oxo-2-(pyridin-3-yl)-6-[4-(trifluoromethoxy)phenyl]-2,3-dihydropyridazine-4-carboxamide]
